Results: ChEMBL document CHEMBL1201862, “PubChem BioAssay data set” (2004)
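Method: 48-hour compound exposure of cells in 96-well plates, five concentrations, linear interpolation of endpoints. GI50 = concentration required for 50% inhibition of growth.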 Active and inactive are the calls of the source. Rule as the data show it: active = GI50 up to about 1.1 µM and inactive = higher.

Legend:
Assay in all cases: NCI tumour cell line growth inhibition, 48 h
[1] = system: CCRF-CEM
[2] = system: EKVX
[3] = system: HCC 2998
[4] = system: HCT-116
[5] = system: HCT-15
[6] = system: HT-29
[7] = system: K562
[8] = system: MOLT-4
[9] = system: NCI-H460
[10] = system: OVCAR-3
[11] = system: OVCAR-4
[12] = system: SF-295
[13] = system: SK-MEL-28
[14] = system: SK-MEL-2
[15] = system: SK-OV-3
[16] = system: SNB-19
[17] = system: SNB-75
[18] = system: SR
[19] = system: UACC-257
[20] = system: UO-31

SMILES	GI50 [1]	GI50 [2]	GI50 [3]	GI50 [4]	GI50 [5] [µM]	GI50 [6]	GI50 [7]	GI50 [8]	GI50 [9]	GI50 [10]	GI50 [11]	GI50 [12]	GI50 [13]	GI50 [14]	GI50 [15]	GI50 [16]	GI50 [17]	GI50 [18]	GI50 [19]	GI50 [20]
COc1cc2c(cc1OCCCC(=O)Nc1cc(C(=O)Nc3cc(C(=O)Nc4cc(C(=O)NCCCN(C)C)n(C)n4)n(C)n3)n(C)n1)N=CC1CCCN1C2=O (stereo not given)	2.72 µM (inactive)	> 100 µM (inactive)	41.9 µM (inactive)	60.8 µM (inactive)	5.69	20 µM (inactive)	4.43 µM (inactive)	3.01 µM (inactive)	41.4 µM (inactive)	29.9 µM (inactive)	16.1 µM (inactive)	32.5 µM (inactive)	13.4 µM (inactive)	24.8 µM (inactive)	45.2 µM (inactive)	18.3 µM (inactive)	27.9 µM (inactive)	2.77 µM (inactive)	19 µM (inactive)	4.39 µM (inactive)
O=C(O)c1nc(-c2ccccn2)c(-c2ccccn2)nc1C(=O)O	2.44 µM (inactive)	1.88 µM (inactive)	0.773 µM (active)	1.67 µM (inactive)	0.384	2.7 µM (inactive)	3.66 µM (inactive)	2.3 µM (inactive)	0.719 µM (active)	2.87 µM (inactive)	2 µM (inactive)	2.49 µM (inactive)	1.2 µM (inactive)	4.95 µM (inactive)	3.77 µM (inactive)	5.04 µM (inactive)	3.49 µM (inactive)	2.03 µM (inactive)	4.35 µM (inactive)	1.64 µM (inactive)
